PubChem BioAssay AID1259407 (Chemical Carcinogenesis Research Information System (CCRIS), 2018)
The source made the active and inactive calls. No rule for the calls is given here. *1 amine or outer side, *2 acyl side, *3 side chain or, on linkers, in order; H or OH if unused. Where a SMILES comes first, the peptide text is derived from it. Bridges are numbered along the chain shown (N, C = ends). Roman numbers before positions name the chains, in order. [ ]: non-standard residue; d: D form. Actinocin(9to1) = Cc1c2oc3c(C)ccc(C(=O)[*:1])c3nc-2c(C(=O)[*:2])c(N)c1=O; NMeV = CN[C@H](C(=O)O)C(C)C; Sar = CNCC(=O)O

System: CCRIS mutagenicity, Ames/micronucleus/aberration tests
Experiment: CCRIS mutagenicity studies
[1] = Test System: AMES SALMONELLA TYPHIMURIUM, Strain/Indicator: TA98, Metabolic Activation: NONE, Method: STANDARD PLATE
[2] = Test System: AMES SALMONELLA TYPHIMURIUM, Strain/Indicator: TA100, Metabolic Activation: NONE, Method: STANDARD PLATE
[3] = Test System: AMES SALMONELLA TYPHIMURIUM, Strain/Indicator: TA1537, Metabolic Activation: NONE, Method: STANDARD PLATE
[4] = Test System: MOUSE LYMPHOMA, Strain/Indicator: L5178Y (TK+/TK-), Metabolic Activation: NONE, Method: SUSPENSION/PLATE
[5] = Test System: AMES SALMONELLA TYPHIMURIUM, Strain/Indicator: TA100, Metabolic Activation: RAT, LIVER, S-9, AROCLOR 1254, Method: STANDARD PLATE
[6] = Test System: AMES SALMONELLA TYPHIMURIUM, Strain/Indicator: TA98, Metabolic Activation: RAT, LIVER, S-9, AROCLOR 1254, Method: STANDARD PLATE

Cc1c2oc3c(C)ccc(C(=O)N[C@@H]4C(=O)N[C@H](C(C)C)C(=O)N5CCC[C@H]5C(=O)N(C)CC(=O)N(C)[C@@H](C(C)C)C(=O)O[C@@H]4C)c3nc-2c(C(=O)N[C@@H]2C(=O)N[C@H](C(C)C)C(=O)N3CCC[C@H]3C(=O)N(C)CC(=O)N(C)[C@@H](C(C)C)C(=O)O[C@@H]2C)c(N)c1=O (I: T[dV]P[Sar][NMeV] / II: T[dV]P[Sar][NMeV]; ester I:1-I:C, II:1-II:C; linker I:N-II:N via Actinocin(9to1))
mutagenic call (End Point: IN VITRO MICRONUCLEUS, Test System: CHO CELLS, Metabolic Activation: RAT, LIVER, S-9, AROCLOR 1254): active; positive
mutagenic call (End Point: IN VITRO MICRONUCLEUS, Test System: V79 CELLS, Metabolic Activation: NONE): active; positive
mutagenic call [1]: inactive; negative
mutagenic call [2]: inactive; negative
mutagenic call (Test System: AMES SALMONELLA TYPHIMURIUM, Strain/Indicator: TA102, Metabolic Activation: NONE, Method: STANDARD PLATE): inactive; negative
mutagenic call [3]: inactive; negative
mutagenic call (Test System: E. COLI, Strain/Indicator: WP2 (HCR), Metabolic Activation: NONE, Method: STANDARD PLATE): inactive; negative
mutagenic call [4]: active; positive

Cc1ccc2nc3c(ccc4ccccc43)c(CO)c2c1
mutagenic call [5]: active; positive

CN(C)c1ccc(N=Nc2ccccc2)cc1
mutagenic call (End Point: IN VIVO CHROMOSOMAL ABERRATIONS, Test System: BONE MARROW CELLS, Species: MOUSE, Strain/Sex: SWISS ALBINO, Route: DIET): active; positive (% of aberrations increased with time)
mutagenic call (End Point: IN VIVO MICRONUCLEUS, Test System: BONE MARROW CELL ERYTHROCYTES, Species: MOUSE, Strain/Sex: SWISS ALBINO, Route: DIET): active; positive (% micronuclei increased with time)
mutagenic call (End Point: IN VIVO MICRONUCLEUS, Test System: HEPATOCYTES, Species: RAT, Strain/Sex: FISHER 344 OR SD/MALE, Route: ORAL OR IP): active; positive
mutagenic call (End Point: IN VIVO MICRONUCLEUS, Test System: PERIPHERAL BLOOD RETICULOCYTES, Species: RAT, Strain/Sex: FISHER 344 OR SD/MALE, Route: ORAL OR IP): active; positive
mutagenic call (End Point: In vivo micronucleus, Test System: Micronucleated hepatocytes, Species: Rat, Strain/Sex: F344/Male, Route: Oral): active; positive (highest dose only; p<0.05)
mutagenic call (Test System: AMES SALMONELLA TYPHIMURIUM, Strain/Indicator: TA97, Metabolic Activation: HAMSTER, LIVER, S-9, AROCLOR 1254 (10%), Method: PREINCUBATION): inactive; negative
mutagenic call (Test System: AMES SALMONELLA TYPHIMURIUM, Strain/Indicator: TA97, Metabolic Activation: NONE, Method: PREINCUBATION): inactive; negative
mutagenic call (Test System: AMES SALMONELLA TYPHIMURIUM, Strain/Indicator: TA97, Metabolic Activation: RAT, LIVER, S-9, AROCLOR 1254 (10%), Method: PREINCUBATION): inactive; negative
mutagenic call (Test System: AMES SALMONELLA TYPHIMURIUM, Strain/Indicator: TA98, Metabolic Activation: HAMSTER, LIVER, S-9, AROCLOR 1254 (10%), Method: PREINCUBATION): active; positive
mutagenic call (Test System: AMES SALMONELLA TYPHIMURIUM, Strain/Indicator: TA98, Metabolic Activation: NONE, Method: PREINCUBATION): inactive; negative
mutagenic call (Test System: AMES SALMONELLA TYPHIMURIUM, Strain/Indicator: TA98, Metabolic Activation: RAT, LIVER, S-9, AROCLOR 1254 (10%), Method: PREINCUBATION): inactive; negative
mutagenic call [6]: active; positive
mutagenic call (Test System: AMES SALMONELLA TYPHIMURIUM, Strain/Indicator: TA98, Metabolic Activation: RAT, LIVER, S-9, AROCLOR, Method: PREINCUBATION): active; positive
mutagenic call (Test System: AMES SALMONELLA TYPHIMURIUM, Strain/Indicator: TA98, Metabolic Activation: RAT, LIVER, S-9, AROCLOR, Method: STANDARD PLATE): active; positive
mutagenic call (Test System: AMES SALMONELLA TYPHIMURIUM, Strain/Indicator: TA98, Metabolic Activation: RAT, LIVER, S-9, KC500 OR PHENOBARBITAL, Method: LIQUID SUSPENSION): active; positive
mutagenic call (Test System: AMES SALMONELLA TYPHIMURIUM, Strain/Indicator: TA100, Metabolic Activation: HAMSTER, LIVER, S-9, AROCLOR 1254 (5%), Method: PREINCUBATION): inactive; negative
mutagenic call (Test System: AMES SALMONELLA TYPHIMURIUM, Strain/Indicator: TA100, Metabolic Activation: HAMSTER, LIVER, S-9, AROCLOR 1254 (10%), Method: PREINCUBATION): inactive; negative
mutagenic call (Test System: AMES SALMONELLA TYPHIMURIUM, Strain/Indicator: TA100, Metabolic Activation: HAMSTER, LIVER, S-9, AROCLOR 1254 (30%), Method: PREINCUBATION): active; positive
mutagenic call (Test System: AMES SALMONELLA TYPHIMURIUM, Strain/Indicator: TA100, Metabolic Activation: NONE, Method: PREINCUBATION): inactive; negative
mutagenic call (Test System: AMES SALMONELLA TYPHIMURIUM, Strain/Indicator: TA100, Metabolic Activation: RAT, LIVER, S-9, AROCLOR 1254 (5 OR 30%), Method: PREINCUBATION): inactive; negative
mutagenic call [5]: active; positive
mutagenic call (Test System: AMES SALMONELLA TYPHIMURIUM, Strain/Indicator: TA100, Metabolic Activation: RAT, LIVER, S-9, KC500 OR PHENOBARBITAL, Method: LIQUID SUSPENSION): active; positive
mutagenic call (Test System: AMES SALMONELLA TYPHIMURIUM, Strain/Indicator: TA1535, Metabolic Activation: HAMSTER, LIVER, S-9, AROCLOR 1254 (10%), Method: PREINCUBATION): inactive; negative
mutagenic call (Test System: AMES SALMONELLA TYPHIMURIUM, Strain/Indicator: TA1535, Metabolic Activation: NONE, Method: PREINCUBATION): inactive; negative
mutagenic call (Test System: AMES SALMONELLA TYPHIMURIUM, Strain/Indicator: TA1535, Metabolic Activation: RAT, LIVER, S-9, AROCLOR 1254 (10%), Method: PREINCUBATION): inactive; negative
mutagenic call (Test System: CHINESE HAMSTER V-79, Strain/Indicator: V-79/6-THIOGUANINE, Metabolic Activation: NONE, Method: SUSPENSION/PLATE): inactive; negative
mutagenic call (Test System: CHINESE HAMSTER V-79, Strain/Indicator: V-79/6-THIOGUANINE, Metabolic Activation: RAT, LIVER, S-9, PHENOBARBITAL AND BETA-NAPHTHOFLAVONE, Method: SUSPENSION/PLATE): inactive; negative
mutagenic call (Test System: E. COLI, Strain/Indicator: WP2 UVRA, Metabolic Activation: HAMSTER, LIVER, S-9, AROCLOR 1254, Method: STANDARD PLATE): inactive; negative
mutagenic call (Test System: E. COLI, Strain/Indicator: WP2 UVRA, Metabolic Activation: HAMSTER, LIVER, S-9, Method: STANDARD PLATE): inactive; negative
mutagenic call (Test System: E. COLI, Strain/Indicator: WP2 UVRA, Metabolic Activation: MOUSE, LIVER, S-9, AROCLOR 1254, Method: STANDARD PLATE): inactive; negative
mutagenic call (Test System: E. COLI, Strain/Indicator: WP2 UVRA, Metabolic Activation: MOUSE, LIVER, S-9, Method: STANDARD PLATE): inactive; negative
mutagenic call (Test System: E. COLI, Strain/Indicator: WP2 UVRA, Metabolic Activation: NONE, Method: STANDARD PLATE): inactive; negative
mutagenic call (Test System: E. COLI, Strain/Indicator: WP2 UVRA, Metabolic Activation: RAT, LIVER, S-9, AROCLOR 1254, Method: STANDARD PLATE): inactive; negative
mutagenic call (Test System: E. COLI, Strain/Indicator: WP2 UVRA, Metabolic Activation: RAT, LIVER, S-9, Method: STANDARD PLATE): inactive; negative
mutagenic call [4]: inactive; negative
mutagenic call (Test System: MOUSE LYMPHOMA, Strain/Indicator: L5178Y (TK+/TK-), Metabolic Activation: RAT, LIVER, S-9, AROCLOR 1254, Method: SUSPENSION/PLATE): active; positive

O=[N+]([O-])O[C@H]1CO[C@H]2[C@@H]1OC[C@H]2O[N+](=O)[O-]
mutagenic call [1]: inactive; negative
mutagenic call [6]: inactive; negative
mutagenic call [2]: inactive; negative
mutagenic call [5]: inactive; negative
mutagenic call (Test System: AMES SALMONELLA TYPHIMURIUM, Strain/Indicator: TA1535, Metabolic Activation: NONE, Method: STANDARD PLATE): inactive; negative
mutagenic call (Test System: AMES SALMONELLA TYPHIMURIUM, Strain/Indicator: TA1535, Metabolic Activation: RAT, LIVER, S-9, AROCLOR 1254, Method: STANDARD PLATE): inactive; negative
mutagenic call [3]: inactive; negative
mutagenic call (Test System: AMES SALMONELLA TYPHIMURIUM, Strain/Indicator: TA1537, Metabolic Activation: RAT, LIVER, S-9, AROCLOR 1254, Method: STANDARD PLATE): inactive; negative
